Here are results for 39 molecules from patent US20260125359A1, “HETEROARYL COMPOUNDS AS MULTI-TARGET PROTEIN KINASE INHIBITORS” (FUJIAN HAIXI PHARMACEUTICALS CO., LTD., priority 2023, published 2026).

SMILES strings stand for the structures.

The subject of this assay is M-NFS-60 cells. The experiment in a line: M-NFS-60 cell in vitro assay (CCK, 48 h, M-CSF factor medium). In kind it is cell-based. The conditions noted are these: M-NFS-60 cells; read-out: M-NFS-60cellassay IC50. The procedure: To determine the inhibitory activity of compounds on M-NFS-60 cells.
• M-NFS-60 cell line (ATCC, Cat. No.: CRL-1838) • RPMI-1640 medium (Gibco, domestic subpackage, Cat. No.: C11875500BT) • Recombinant Mouse CSF1/M-CSF (Sino Biological Inc., Cat. No.: 51112-MNAH) • PAN/Serum (BioTECH, Cat. No.: P30-2602) • Trypsin/0.05% Trypsin-EDTA (Gibco, Cat. No.: 25300-062) • 0.4% Trypan Blue (Sigma, Cat. No.: T8154-20 ml) • Penicillin-Streptomycin (Hyclone, Cat. No.: SV30010) • DMSO (Solarbio, Cat. No.: D8371) • PBS (Solarbio, Cat. No.: P1020) • CCK (AbMole BioScience, Cat. No.: M4839-500Tests)
• 1) M-CSF factor stock solution: take 10 μg of powdered m-CSF factor, add 0.4 ml of saline, formulate 25 ug/ml and store at −80° C. • 2) M-CSF factor (25 ng/ml) medium: • 1640 (Gibco)+10% PAN+100×Penicillin-Streptomycin+100×M-CSF stock solution • 3) Complete medium: • 1640 (Gibco)+10% PAN+100×Penicillin-Streptomycin • 4) Compound preparation: 2-3 mg of the compound was added to DMSO to formulate a 30 mM stock solution, −80° C. refrigerator storage
• 1) Cell resuscitation: the frozen cells in the cryovial were thawed rapidly by shaking in a 37° C. water bath, then 4 mL of medium was added. After mixing evenly, they were centrifuged at 125×g for 5 min, and the supernatant was discarded. The cells were resuspended and transferred to the culture flasks, and were cultured in a 5% CO2 fully saturated humidity incubator. • 2) Cell passaging: M-NFS-60 cells are semi-suspension cells, which were collected directly in a 15 mL centrifuge tube, centrifuged at 125×g for 5 min. and the supernatant was discarded. The cells were resuspended and passaged into new culture flasks at a ratio of 1:5 to 1:10. • 3) After the newly resuscitated cells were passaged 1-2 times for cell stabilization, compound inhibition assays were started when the cells were in the logarithmic growth phase. • (a) Cell collection and counting: the same as the cell passaging step, centrifuge in two tubes, one tube with M-CSF factor medium to resuspend the cells, the other tube with complete medium to resuspend the cells. Take 10 μL of cell suspension in each tube, and count the cells by Tepan blue staining. • (b) Dilute the cell solution according to the concentration of inoculated cells respectively, the concentration of M-NFS-60 cells inoculated with factor was 5.56×10^4 cells/mL, and the concentration of inoculated without factor was 5×10^4 cells/mL. • (c) Seed plate: 384 well plate inoculated with M-NFS-60 cells, 36 uL/well, triplicate wells, the number of inoculated cells was equivalent to 2000 cells/well, set with blank control, factor free negative control, normal control, DMSO control and experimental wells. The cells were placed in a 5% CO2 fully saturated humidity incubator for 4 h. • (d) Sampling compounds: 96 well plates were used for compound preparation. The compound solution prepared in advance was diluted to corresponding gradient concentration with DMSO. An appropriate amount of the diluted solution in the previous step was added to an equal volume of factor containing medium. The 96 well plates were centrifuged at 1000 rpm for 5 min, which played the role of defoaming and spinning down droplets and condensation. Remove the 384 well plate from the incubator, add the diluted compound solution into each well sequentially, 4 μL/well; DMSO wells and normal wells were added with corresponding factor containing medium, 4 μL/well. Then it was put into CO2 incubator for 48 h. • (e) After incubation for 48 h, CCK was added to each well, 4 uL, and the plates were placed in the incubator for another 2 h, and then the OD (optical density) value at 450 nm was measured by microplate reader.
The IC50 values for each test compound were fitted using professional graphing and analysis software.
Take `Cc1cccc(C(=O)Nc2c(F)ccc3c2CC[C@@H]3Nc2cncc(-c3cnn(C)c3)c2)c1` (stereo in doubt) [Compound 43, N-(5-fluoro-1-((5-(1-methyl-1H-pyrazol-4-yl)pyridin-3-yl)amino)-2,3-dihydro-1H-inden-4-yl)-3-methylbenzamide]: the IC50 (usually the concentration at which inhibition is half-maximal) was 200 to 500 nM. The value for `COc1cccc(C(=O)Nc2cccc3c2CCC3Oc2cc(-c3cnn(C)c3)cnc2N)c1` (stereo not drawn) [Compound 1, N-(1-((2-amino-5-(1-methyl-1H-pyrazol-4-yl)pyridin-3-yl)oxy)-2,3-dihydro-1H-inden-4-yl)-3-methoxybenzamide] was 50 to 200 nM. As for `COc1cccc(C(=O)Nc2cccc3c2CCC3Oc2cc(Br)cnc2N)c1` (stereo not drawn) [Compound 1f, N-(1-((2-amino-5-bromopyridin-3-yl)oxy)-2,3-dihydro-1H-inden-4-yl)-3-methoxybenzamide], the IC50 was in the range of 50 to 200 nM. Next, `COc1cccc(C(=O)Nc2cccc3c2CCCC3Oc2cc(-c3cnn(C)c3)cnc2N)c1` (stereo not drawn) [Compound 2a]: above 500 nM. On to `COc1cccc(C(=O)Nc2cccc3c2OCCC3Oc2cc(Br)cnc2N)c1` (stereo not drawn) [Compound 2b], for which the IC50 is above 500 nM. Next, `COc1cccc(C(=O)Nc2cccc3c2OCCC3Oc2cc(-c3cnn(C)c3)cnc2N)c1` (stereo not drawn) [Compound 2c]: 200 to 500 nM; `COc1cccc(C(=O)Nc2cccc3c2CC[C@H]3Oc2cc(-c3cnn(C)c3)cnc2N)c1` [Compound 3a]: above 500 nM; `COc1cccc(C(=O)Nc2cccc3c2CC[C@@H]3Oc2cc(-c3cnn(C)c3)cnc2N)c1` [Compound 3b]: below 50 nM. The value for `Cn1cc(-c2cnc(N)c(O[C@H]3CCc4c(NC(=O)c5ccc6c(c5)OC(F)(F)O6)cccc43)c2)cn1` [Compound 3c] was 50 to 200 nM; that for `Cn1cc(-c2cnc(N)c(O[C@H]3CCc4c(NC(=O)c5csc6ccccc56)cccc43)c2)cn1` [Compound 3d] was below 50 nM. The value for `Cn1cc(-c2cnc(N)c(O[C@H]3CCc4c(NC(=O)c5cccc(C(F)(F)F)c5)cccc43)c2)cn1` [Compound 3e] was below 50 nM. As for `Cc1ccc(C(=O)Nc2cccc3c2CC[C@@H]3Oc2cc(-c3cnn(C)c3)cnc2N)cc1C` [Compound 3f], the IC50 was below 50 nM. As to `Cn1cc(-c2cnc(N)c(O[C@H]3CCc4c(NC(=O)c5cccc(C6CC6)c5)cccc43)c2)cn1` [Compound 3g], the IC50 is below 50 nM. Next, `Cn1cc(-c2cnc(N)c(O[C@H]3CCc4c(NC(=O)c5cccc(CN6CCCCC6)c5)cccc43)c2)cn1` [Compound 3h]: above 500 nM; `Cn1cc(-c2cnc(N)c(O[C@H]3CCc4c(NC(=O)c5cccc(CN6CCCC6)c5)cccc43)c2)cn1` [Compound 3i]: above 500 nM; `CN(C)Cc1cccc(C(=O)Nc2cccc3c2CC[C@@H]3Oc2cc(-c3cnn(C)c3)cnc2N)c1` [Compound 3j]: above 500 nM. The value for `Cn1cc(-c2cnc(N)c(O[C@H]3CCc4c(C(=O)Nc5cccc(CN6CCCCC6)c5)cccc43)c2)cn1` [Compound 5b] was 50 to 200 nM; that for `Cn1cc(-c2cnc(N)c(O[C@H]3CCc4c(C(=O)Nc5cccc(CN6CCCC6)c5)cccc43)c2)cn1` [Compound 5c] was 50 to 200 nM; that for `CN(C)Cc1ccc(NC(=O)c2cccc3c2CC[C@@H]3Oc2cc(-c3cnn(C)c3)cnc2N)cc1` [Compound 5d] was below 50 nM. The value for `CN(C)Cc1cccc(NC(=O)c2cccc3c2CC[C@@H]3Oc2cc(-c3cnn(C)c3)cnc2N)c1` [Compound 5e] was below 50 nM; that for `Cc1cc(C(=O)Nc2cccc3c2CC[C@@H]3Nc2cc(-c3cnn(C)c3)cnc2N)ccc1F` [Compound 6, (S)—N-(1-((2-amino-5-(1-methyl-1H-pyrazol-4-yl)pyridin-3-yl)amino)-2,3-dihydro-1H-inden-4-yl)-4-fluoro-3-methylbenzamide] was 50 to 200 nM; that for `Nc1ncc(Cl)cc1O[C@H]1CCc2c(C(=O)Nc3cccc(C4CC4)c3)cccc21` [Compound 7, (S)-1-((2-amino-5-chloropyridin-3-yl)oxy)-N-(3-cyclopropylphenyl)-2,3-dihydro-1H-indene-4-carboxamide] was below 50 nM. As for `Cc1cccc(C(=O)Nc2cccc3c2CCC3Nc2cncc(-c3cnn(C)c3)c2)c1` (stereo not drawn) [Compound 8, 3-methyl-N-(1-((5-(1-methyl-1H-pyrazol-4-yl)pyridin-3-yl)amino)-2,3-dihydro-1H-inden-4-yl)benzamide], the IC50 is below 50 nM. Turning to `Cc1cccc(C(=O)Nc2cccc3c2CCC3Nc2cncc(Br)c2)c1` (stereo not drawn) [Compound 8d, N-(1-((5-bromopyridin-3-yl)amino)-2,3-dihydro-1H-inden-4-yl)-3-methylbenzamide], the IC50 fell in the range of 50 to 200 nM. Consider `Cn1cc(-c2cncc(NC3CCc4c(NC(=O)c5ccc6c(c5)OC(F)(F)O6)cccc43)c2)cn1` (stereo not drawn) [Compound 9, 2,2-difluoro-N-(1-((5-(1-methyl-1H-pyrazol-4-yl)pyridin-3-yl)amino)-2,3-dihydro-1H-inden-4-yl)benzo[d][1,3]dioxole-5-carboxamide], for which the IC50 lay within 50 to 200 nM. In the case of `O=C(Nc1cccc(C2CC2)c1)c1cccc2c1CC[C@@H]2Nc1cncc(Br)c1` [Compound 10, (S)-1-((5-bromopyridin-3-yl)amino)-N-(3-cyclopropylphenyl)-2,3-dihydro-1H-indene-4-carboxamide], the IC50 was in the range of 50 to 200 nM. Consider `O=C(Nc1cccc2c1CC[C@@H]2Nc1cncc(Br)c1)c1cccc(C2CC2)c1` [Compound 11, (S)—N-(1-((5-bromopyridin-3-yl)amino)-2,3-dihydro-1H-inden-4-yl)-3-cyclopropylbenzamide], for which the IC50 was in the range of 50 to 200 nM.

For the molecule `Cc1cccc(C(=O)Nc2cccc3c2CC[C@@H]3Nc2cncc(-c3cnn(C)c3)c2)c1` [Compound 12, (S)-3-methyl-N-(1-((5-(1-methyl-1H-pyrazol-4-yl)pyridin-3-yl)amino)-2,3-dihydro-1H-inden-4-yl)benzamide], the IC50 was below 50 nM. Next, `Cc1ccc(F)c(NC(=O)c2cccc3c2CC[C@@H]3Nc2cncc(-c3cnn(C)c3)c2)c1` [Compound 14ac]: below 50 nM; `Cn1cc(-c2cncc(N[C@H]3CCc4c(C(=O)Nc5ccc(Cl)c(C(F)(F)F)c5)cccc43)c2)cn1` [Compound 14ad]: below 50 nM.

Take `Cn1cc(-c2cncc(N[C@H]3CCc4c(C(=O)Nc5ccccc5F)cccc43)c2)cn1` [Compound 14ae]: the IC50 was below 50 nM. The value for `COc1cc(NC(=O)c2cccc3c2CC[C@@H]3Nc2cncc(-c3cnn(C)c3)c2)ccc1F` [Compound 14af] was below 50 nM; that for `Cn1cc(-c2cncc(N[C@H]3CCc4c(C(=O)Nc5nn(C)c6ccccc56)cccc43)c2)cn1` [Compound 14ag] was below 50 nM; that for `CN1CCN(c2cccc(NC(=O)c3cccc4c3CC[C@@H]4Nc3cncc(-c4cnn(C)c4)c3)c2)CC1` [Compound 14ai] was 50 to 200 nM. On to `CN1CCN(Cc2ccc(NC(=O)c3cccc4c3CC[C@@H]4Nc3cncc(-c4cnn(C)c4)c3)cc2)CC1` [Compound 14aj], for which the IC50 was in the range of 50 to 200 nM.

On to `Cn1cc(-c2cncc(N[C@H]3CCc4c(C(=O)Nc5cncc(C(F)(F)F)c5)cccc43)c2)cn1` [Compound 14ak], for which the concentration for half-maximal inhibition (IC50) was below 50 nM. `Cn1cc(-c2cncc(N[C@H]3CCc4c(C(=O)Nc5ccc(C(F)(F)F)cc5)cccc43)c2)cn1` [Compound 14al]: the IC50 was below 50 nM. Next, `COc1ccc(NC(=O)c2cccc3c2CC[C@@H]3Nc2cncc(-c3cnn(C)c3)c2)cc1` [Compound 14am]: below 50 nM; `Cn1cc(-c2cncc(N[C@H]3CCc4c(C(=O)Nc5ccc(Cl)cc5)cccc43)c2)cn1` [Compound 14an]: below 50 nM.
